According to ChEMBL document CHEMBL1201862, “PubChem BioAssay data set” (2004):
The source made the active and inactive calls.

Key:
Assay type in all cases: functional
[1] = molecular target: Protein kinase C theta type (Homo sapiens, UniProt Q04759); test: Navigating the Kinome. Panel member name: PRKCQ
[2] = molecular target: Serine/threonine-protein kinase TBK1 (Homo sapiens, UniProt Q9UHD2); test: Navigating the Kinome. Panel member name: TBK1
[3] = molecular target: Protein kinase C delta type (Homo sapiens, UniProt Q05655)
[4] = molecular target: Serine/threonine-protein kinase D2 (Homo sapiens, UniProt Q9BZL6);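 also: measured against PRKD2 as one member of a kinome-wide kinase profiling panel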
[5] = molecular target: Serine/threonine-protein kinase 17A (Homo sapiens, UniProt Q9UEE5)
[6] = molecular target: SRSF protein kinase 1 (Homo sapiens, UniProt Q96SB4);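 also: measured as one member of a kinome-wide kinase profiling panel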
[7] = molecular target: Fibroblast growth factor receptor 1 (Homo sapiens, UniProt P11362)
[8] = molecular target: Mitogen-activated protein kinase kinase kinase 20 (Homo sapiens, UniProt Q9NYL2)
[9] = molecular target: Hepatocyte growth factor receptor (Homo sapiens, UniProt P08581);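 also: kinase panel profiling across the kinome, with MET as the panel member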
[10] = molecular target: Receptor-type tyrosine-protein kinase FLT3 (Homo sapiens, UniProt P36888);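 also: FLT3 was tested as one member of a kinome-wide kinase panel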
[11] = molecular target: RAC-alpha serine/threonine-protein kinase (Homo sapiens, UniProt P31749);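 also: AKT1 affinity measured as one member of a kinome-wide kinase profiling panel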
[12] = molecular target: Rho-associated protein kinase 1 (Homo sapiens, UniProt Q13464);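 also: measured within a broad kinome-wide panel profiling many kinases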
[13] = molecular target: Tyrosine-protein kinase Fer (Homo sapiens, UniProt P16591);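 also: FER tested as one member of a kinome panel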
[14] = molecular target: Tyrosine-protein kinase Fyn (Homo sapiens, UniProt P06241)
[15] = molecular target: 3-phosphoinositide-dependent protein kinase 1 (Homo sapiens, UniProt O15530);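 also: value comes from the Navigating the Kinome panel, PDPK1 member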
[16] = molecular target: Serine/threonine-protein kinase DCLK1 (Homo sapiens, UniProt O15075);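 also: affinity for DCLK1 (listed as DCAMKL1) measured as one member of a kinome-wide kinase profiling panel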
[17] = molecular target: Cyclin-dependent kinase 8 (Homo sapiens, UniProt P49336); test: Navigating the Kinome. Panel member name: CDK8
[18] = molecular target: STE20-like serine/threonine-protein kinase (Homo sapiens, UniProt Q9H2G2)
[19] = molecular target: BDNF/NT-3 growth factors receptor (Homo sapiens, UniProt Q16620);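 also: NTRK2 measured as one member of a broad kinome-wide kinase profiling panel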
[20] = molecular target: Dual specificity protein kinase CLK4 (Homo sapiens, UniProt Q9HAZ1)
[21] = molecular target: Inhibitor of nuclear factor kappa-B kinase subunit epsilon (Homo sapiens, UniProt Q14164); test: Navigating the Kinome. Panel member name: IKBKE
[22] = molecular target: Tyrosine-protein kinase receptor UFO (Homo sapiens, UniProt P30530)
Sequence of Tyrosine-protein kinase receptor UFO (P30530 whole entry): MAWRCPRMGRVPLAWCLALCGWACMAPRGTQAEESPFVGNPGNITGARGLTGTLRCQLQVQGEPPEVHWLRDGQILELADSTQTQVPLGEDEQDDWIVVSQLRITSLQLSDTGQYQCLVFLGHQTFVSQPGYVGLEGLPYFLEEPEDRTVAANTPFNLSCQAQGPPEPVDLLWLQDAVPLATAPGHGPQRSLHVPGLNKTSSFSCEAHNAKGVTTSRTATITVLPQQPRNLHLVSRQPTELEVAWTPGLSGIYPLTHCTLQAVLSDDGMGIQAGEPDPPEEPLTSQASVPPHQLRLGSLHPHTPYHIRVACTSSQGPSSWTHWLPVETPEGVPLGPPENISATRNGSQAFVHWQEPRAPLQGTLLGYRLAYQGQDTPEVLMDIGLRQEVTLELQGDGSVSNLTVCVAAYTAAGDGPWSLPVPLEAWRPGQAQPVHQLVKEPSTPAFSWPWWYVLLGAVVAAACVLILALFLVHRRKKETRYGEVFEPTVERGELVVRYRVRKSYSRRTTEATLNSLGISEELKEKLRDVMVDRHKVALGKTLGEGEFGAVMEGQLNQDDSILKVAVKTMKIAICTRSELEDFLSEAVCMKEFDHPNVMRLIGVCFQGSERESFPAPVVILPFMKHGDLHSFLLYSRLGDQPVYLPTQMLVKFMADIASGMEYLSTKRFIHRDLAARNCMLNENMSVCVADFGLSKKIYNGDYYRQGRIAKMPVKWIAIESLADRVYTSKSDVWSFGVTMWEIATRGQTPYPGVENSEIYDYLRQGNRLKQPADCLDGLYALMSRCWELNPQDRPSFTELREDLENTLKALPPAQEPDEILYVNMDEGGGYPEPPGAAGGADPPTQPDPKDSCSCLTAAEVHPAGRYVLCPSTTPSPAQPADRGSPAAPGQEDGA

Sequence of BDNF/NT-3 growth factors receptor (Q16620 whole entry): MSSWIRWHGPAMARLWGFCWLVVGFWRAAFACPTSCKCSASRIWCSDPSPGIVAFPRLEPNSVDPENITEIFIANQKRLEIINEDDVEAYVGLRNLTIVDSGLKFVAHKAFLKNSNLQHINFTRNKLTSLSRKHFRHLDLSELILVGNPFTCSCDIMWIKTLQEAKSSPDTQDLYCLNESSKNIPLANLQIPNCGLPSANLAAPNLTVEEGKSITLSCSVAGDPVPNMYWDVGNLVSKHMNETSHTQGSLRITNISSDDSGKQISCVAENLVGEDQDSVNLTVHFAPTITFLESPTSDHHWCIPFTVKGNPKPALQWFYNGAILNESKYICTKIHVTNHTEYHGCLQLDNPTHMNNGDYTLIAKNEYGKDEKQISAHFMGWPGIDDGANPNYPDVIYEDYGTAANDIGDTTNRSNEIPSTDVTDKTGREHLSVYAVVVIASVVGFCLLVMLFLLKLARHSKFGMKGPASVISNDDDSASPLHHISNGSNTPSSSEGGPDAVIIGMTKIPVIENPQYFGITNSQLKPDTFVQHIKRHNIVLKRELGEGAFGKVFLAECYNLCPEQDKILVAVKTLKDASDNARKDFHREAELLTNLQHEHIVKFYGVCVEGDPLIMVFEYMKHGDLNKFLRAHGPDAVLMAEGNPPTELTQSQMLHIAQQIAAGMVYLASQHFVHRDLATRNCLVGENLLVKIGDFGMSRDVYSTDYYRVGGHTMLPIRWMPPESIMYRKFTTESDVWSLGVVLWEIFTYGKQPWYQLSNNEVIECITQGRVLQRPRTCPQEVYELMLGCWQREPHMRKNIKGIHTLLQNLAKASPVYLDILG
Sequence of Cyclin-dependent kinase 8 (P49336 whole entry): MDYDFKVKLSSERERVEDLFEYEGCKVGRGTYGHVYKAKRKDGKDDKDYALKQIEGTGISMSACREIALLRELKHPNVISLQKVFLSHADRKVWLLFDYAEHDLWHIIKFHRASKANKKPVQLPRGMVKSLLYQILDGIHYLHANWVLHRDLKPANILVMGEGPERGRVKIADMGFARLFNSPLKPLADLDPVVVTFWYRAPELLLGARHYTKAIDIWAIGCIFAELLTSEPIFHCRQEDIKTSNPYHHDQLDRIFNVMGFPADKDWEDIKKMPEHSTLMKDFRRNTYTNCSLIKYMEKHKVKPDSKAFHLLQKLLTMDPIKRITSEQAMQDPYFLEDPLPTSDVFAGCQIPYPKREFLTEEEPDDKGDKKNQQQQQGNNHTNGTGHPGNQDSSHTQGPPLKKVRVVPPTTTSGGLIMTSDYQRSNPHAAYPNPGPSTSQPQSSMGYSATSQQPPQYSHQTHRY
Sequence of Protein kinase C theta type (Q04759 whole entry): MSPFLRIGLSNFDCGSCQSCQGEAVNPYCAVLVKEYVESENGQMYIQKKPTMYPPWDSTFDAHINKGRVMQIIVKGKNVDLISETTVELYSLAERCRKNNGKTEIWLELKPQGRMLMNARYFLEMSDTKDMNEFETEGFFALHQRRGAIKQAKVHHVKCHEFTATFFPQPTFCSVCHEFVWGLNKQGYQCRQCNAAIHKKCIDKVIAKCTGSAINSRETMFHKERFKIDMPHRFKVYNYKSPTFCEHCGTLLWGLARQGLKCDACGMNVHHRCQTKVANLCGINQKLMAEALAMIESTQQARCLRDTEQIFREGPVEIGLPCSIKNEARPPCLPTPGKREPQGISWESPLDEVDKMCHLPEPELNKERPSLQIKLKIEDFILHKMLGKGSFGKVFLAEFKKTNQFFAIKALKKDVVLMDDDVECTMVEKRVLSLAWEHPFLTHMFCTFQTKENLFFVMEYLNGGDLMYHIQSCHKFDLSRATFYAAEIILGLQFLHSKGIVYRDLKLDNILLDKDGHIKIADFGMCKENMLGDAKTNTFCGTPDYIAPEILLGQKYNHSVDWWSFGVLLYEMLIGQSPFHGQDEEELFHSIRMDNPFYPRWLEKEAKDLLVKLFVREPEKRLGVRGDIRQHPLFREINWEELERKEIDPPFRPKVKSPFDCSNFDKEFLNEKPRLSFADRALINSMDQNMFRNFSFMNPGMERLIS
Sequence of Inhibitor of nuclear factor kappa-B kinase subunit epsilon (Q14164 whole entry): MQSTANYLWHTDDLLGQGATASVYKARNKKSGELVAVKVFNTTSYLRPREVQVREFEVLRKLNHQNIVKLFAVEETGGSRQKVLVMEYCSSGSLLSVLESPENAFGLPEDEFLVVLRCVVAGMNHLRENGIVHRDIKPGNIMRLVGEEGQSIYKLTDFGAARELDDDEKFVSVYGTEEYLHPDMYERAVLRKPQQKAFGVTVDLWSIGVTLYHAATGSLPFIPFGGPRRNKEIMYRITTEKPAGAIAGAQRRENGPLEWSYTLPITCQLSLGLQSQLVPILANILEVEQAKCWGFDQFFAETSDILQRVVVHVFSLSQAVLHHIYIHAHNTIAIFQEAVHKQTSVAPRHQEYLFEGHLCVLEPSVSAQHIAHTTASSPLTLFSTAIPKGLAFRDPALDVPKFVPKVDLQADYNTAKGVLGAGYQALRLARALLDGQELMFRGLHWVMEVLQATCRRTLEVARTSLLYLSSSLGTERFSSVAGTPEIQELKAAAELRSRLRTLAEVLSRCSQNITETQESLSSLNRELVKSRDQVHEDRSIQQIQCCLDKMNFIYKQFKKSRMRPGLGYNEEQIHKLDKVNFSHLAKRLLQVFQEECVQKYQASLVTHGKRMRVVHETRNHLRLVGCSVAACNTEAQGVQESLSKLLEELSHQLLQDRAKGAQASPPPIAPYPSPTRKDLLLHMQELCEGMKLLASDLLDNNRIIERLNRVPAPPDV
Sequence of Hepatocyte growth factor receptor (P08581 whole entry): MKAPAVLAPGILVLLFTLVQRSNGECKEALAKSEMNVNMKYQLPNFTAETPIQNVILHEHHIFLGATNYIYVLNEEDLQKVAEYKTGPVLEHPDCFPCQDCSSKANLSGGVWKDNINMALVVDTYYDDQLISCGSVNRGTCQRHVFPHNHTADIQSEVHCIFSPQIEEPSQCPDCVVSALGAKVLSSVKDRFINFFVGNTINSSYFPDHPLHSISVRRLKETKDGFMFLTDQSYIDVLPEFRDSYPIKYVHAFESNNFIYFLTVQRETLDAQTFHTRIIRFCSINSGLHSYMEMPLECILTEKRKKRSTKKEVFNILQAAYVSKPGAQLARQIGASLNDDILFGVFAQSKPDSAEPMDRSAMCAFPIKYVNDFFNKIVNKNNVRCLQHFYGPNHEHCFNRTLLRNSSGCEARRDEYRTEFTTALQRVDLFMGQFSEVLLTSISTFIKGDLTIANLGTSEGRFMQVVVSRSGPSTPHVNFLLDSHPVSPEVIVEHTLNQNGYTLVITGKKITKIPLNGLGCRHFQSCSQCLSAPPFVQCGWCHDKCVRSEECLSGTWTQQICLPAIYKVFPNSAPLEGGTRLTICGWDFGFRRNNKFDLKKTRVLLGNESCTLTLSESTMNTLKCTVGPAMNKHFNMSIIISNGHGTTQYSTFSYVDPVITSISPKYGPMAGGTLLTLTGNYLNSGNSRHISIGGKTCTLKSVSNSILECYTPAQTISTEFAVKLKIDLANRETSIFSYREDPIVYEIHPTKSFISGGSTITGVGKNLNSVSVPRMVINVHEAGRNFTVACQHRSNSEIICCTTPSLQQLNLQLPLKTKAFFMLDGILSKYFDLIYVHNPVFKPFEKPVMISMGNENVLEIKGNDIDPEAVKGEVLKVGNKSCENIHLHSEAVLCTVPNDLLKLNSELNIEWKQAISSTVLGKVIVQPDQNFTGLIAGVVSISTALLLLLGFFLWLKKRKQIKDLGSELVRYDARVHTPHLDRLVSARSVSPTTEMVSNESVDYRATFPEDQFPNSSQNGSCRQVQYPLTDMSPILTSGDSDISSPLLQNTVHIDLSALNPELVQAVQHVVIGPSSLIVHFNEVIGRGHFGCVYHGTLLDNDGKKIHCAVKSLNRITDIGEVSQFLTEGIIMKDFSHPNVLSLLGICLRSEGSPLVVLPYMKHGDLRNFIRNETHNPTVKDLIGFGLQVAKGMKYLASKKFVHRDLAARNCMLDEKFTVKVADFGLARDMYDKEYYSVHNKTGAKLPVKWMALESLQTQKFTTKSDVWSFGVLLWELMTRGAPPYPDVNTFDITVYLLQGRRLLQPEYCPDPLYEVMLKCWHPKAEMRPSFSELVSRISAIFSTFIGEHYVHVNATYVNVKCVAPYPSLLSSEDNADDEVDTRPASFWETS

Ki [1]: > 2000 nM (inactive)
Ki [2]: > 1580 nM (inactive)
Ki [3]: 316 nM (active)
Ki [4]: 50.1 nM (active)
Ki [5]: 39.8 nM (active)
Ki [6]: 2000 nM (active)
Ki [7]: > 3980 nM (inactive)
Ki [8]: 2510 nM (active)
Ki [9]: > 2000 nM (inactive)
Ki [10]: > 1260 nM (inactive)
Ki [11]: 251 nM (active)
Ki [12]: 79.4 nM (active)
Ki [13]: > 1580 nM (inactive)
Ki [14]: > 3160 nM (inactive)
Ki [15]: 1.58 nM (active)
Ki [16]: 2510 nM (active)
Ki [17]: > 3980 nM (inactive)
Ki [18]: 126 nM (active)
Ki [19]: > 3980 nM (inactive)
Ki [20]: 31.6 nM (active)
Ki [21]: > 3160 nM (inactive)
Ki [22]: 501 nM (active)
SMILES: NCCCn1cc(-c2cc(-c3cc4ccccc4s3)c3[nH]ncc3c2)c2nc(N)ncc21
